This is an account of results in patent US20220259196A1, “2-AMINOPYRIMIDINE COMPOUND AND USES THEREOF” (Shenyang Pharmaceutical University, priority 2019, published 2022).

Experiment [1] has as its target T1, FLT3 (Homo sapiens, UniProt P36888).
T1 sequence (P36888 27-993): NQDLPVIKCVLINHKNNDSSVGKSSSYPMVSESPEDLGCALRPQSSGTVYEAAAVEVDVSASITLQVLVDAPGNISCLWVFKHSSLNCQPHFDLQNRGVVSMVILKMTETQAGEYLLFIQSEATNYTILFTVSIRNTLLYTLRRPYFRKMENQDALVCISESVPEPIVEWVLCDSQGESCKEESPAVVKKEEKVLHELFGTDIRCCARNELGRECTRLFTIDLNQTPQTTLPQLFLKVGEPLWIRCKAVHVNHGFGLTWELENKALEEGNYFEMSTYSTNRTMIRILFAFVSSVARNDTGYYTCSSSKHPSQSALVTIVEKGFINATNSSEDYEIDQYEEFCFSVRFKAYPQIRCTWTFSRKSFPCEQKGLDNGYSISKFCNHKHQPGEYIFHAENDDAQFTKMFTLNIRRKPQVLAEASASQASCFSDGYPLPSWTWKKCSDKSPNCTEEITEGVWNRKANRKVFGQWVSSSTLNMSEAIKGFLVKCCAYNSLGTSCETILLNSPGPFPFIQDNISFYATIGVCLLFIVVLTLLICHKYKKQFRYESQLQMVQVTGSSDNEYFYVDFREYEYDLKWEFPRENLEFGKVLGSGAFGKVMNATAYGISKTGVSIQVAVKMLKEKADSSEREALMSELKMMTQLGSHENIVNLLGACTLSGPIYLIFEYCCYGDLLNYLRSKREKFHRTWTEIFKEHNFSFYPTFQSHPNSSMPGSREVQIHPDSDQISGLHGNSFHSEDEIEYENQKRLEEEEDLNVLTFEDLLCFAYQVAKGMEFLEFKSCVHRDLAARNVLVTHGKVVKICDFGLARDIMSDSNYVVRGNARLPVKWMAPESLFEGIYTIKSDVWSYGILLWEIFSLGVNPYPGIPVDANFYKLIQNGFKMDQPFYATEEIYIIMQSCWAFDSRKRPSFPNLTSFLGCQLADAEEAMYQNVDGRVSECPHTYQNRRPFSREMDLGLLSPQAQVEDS
Kind of experiment: in vitro FLT3 kinase activity test, Mobility Shift Assay. It counts as biochemical. The following applies: compound concentration 0.1 μM; read-out: Percentage of inhibition against FLT3 at 0.1 μM. The protocol: The in vitro JAK2 and FLT3 kinase activity test was performed on the compounds of the 2-aminopyrimidine backbone of the above formula I (concentration 0.1 μM) according to the present invention using Mobility Shift Assay.
(§1) The kinase buffer was composed of 50 mM HEPEs (pH 7.5) and 0.0015% BRIJ-35. The stop buffer contained a mixture of 100 mM HEPES (pH 7.5), 0.015% BRIJ-35, 0.2% coating reagent #3 and 50 mM EDTA. The compound to be tested was diluted with 100% DMSO to 50 times the highest concentration required in the reaction. The dilution of compound to be tested (100 μL) was transferred to the wells of a 96-well plate. […] was added to two wells of the plate as a control group and the plate was marked as the source plate. 10 μL of compound was transferred from the source plate to a new 96-well plate to prepare an intermediate plate. In the intermediate plate, an additional 90 μL of kinase buffer was added to each well. The intermediate plate was shaken for 10 minutes, and then 5 μL of each well of the 96-well intermediate plate was copied to a 384-well plate as an analysis plate. The prepared enzyme solution was added to each well of the 384-well plate, then incubated at room temperature for 10 minutes, and then 10 μL of the prepared peptide solution (FAM-labeled peptide and ATP in kinase-based buffer) was added. The sample was incubated at 28° C. for 1 hours, and then 25 μL of buffer was added. The conversion data from the Caliper program was copied and converted to the inhibition rate.
(§2) Inhibition rate (%)=(max−conversion)/(max−min)×100.

In experiment [2] the target is JAK2 (Homo sapiens, UniProt O60674). Kind of experiment: in vitro JAK2 kinase activity test, Mobility Shift Assay. It counts as biochemical. The following applies: compound concentration 0.1 μM; read-out: Percentage of inhibition against JAK2 at 0.1 μM. Here is the method:
The in vitro JAK2 and FLT3 kinase activity test was performed on the compounds of the 2-aminopyrimidine backbone of the above formula I (concentration 0.1 μM) according to the present invention using Mobility Shift Assay. The control compounds Pacritinib and Fedratinib were prepared by our research group.
as §1, §2

JAK2, sequence (O60674 whole entry): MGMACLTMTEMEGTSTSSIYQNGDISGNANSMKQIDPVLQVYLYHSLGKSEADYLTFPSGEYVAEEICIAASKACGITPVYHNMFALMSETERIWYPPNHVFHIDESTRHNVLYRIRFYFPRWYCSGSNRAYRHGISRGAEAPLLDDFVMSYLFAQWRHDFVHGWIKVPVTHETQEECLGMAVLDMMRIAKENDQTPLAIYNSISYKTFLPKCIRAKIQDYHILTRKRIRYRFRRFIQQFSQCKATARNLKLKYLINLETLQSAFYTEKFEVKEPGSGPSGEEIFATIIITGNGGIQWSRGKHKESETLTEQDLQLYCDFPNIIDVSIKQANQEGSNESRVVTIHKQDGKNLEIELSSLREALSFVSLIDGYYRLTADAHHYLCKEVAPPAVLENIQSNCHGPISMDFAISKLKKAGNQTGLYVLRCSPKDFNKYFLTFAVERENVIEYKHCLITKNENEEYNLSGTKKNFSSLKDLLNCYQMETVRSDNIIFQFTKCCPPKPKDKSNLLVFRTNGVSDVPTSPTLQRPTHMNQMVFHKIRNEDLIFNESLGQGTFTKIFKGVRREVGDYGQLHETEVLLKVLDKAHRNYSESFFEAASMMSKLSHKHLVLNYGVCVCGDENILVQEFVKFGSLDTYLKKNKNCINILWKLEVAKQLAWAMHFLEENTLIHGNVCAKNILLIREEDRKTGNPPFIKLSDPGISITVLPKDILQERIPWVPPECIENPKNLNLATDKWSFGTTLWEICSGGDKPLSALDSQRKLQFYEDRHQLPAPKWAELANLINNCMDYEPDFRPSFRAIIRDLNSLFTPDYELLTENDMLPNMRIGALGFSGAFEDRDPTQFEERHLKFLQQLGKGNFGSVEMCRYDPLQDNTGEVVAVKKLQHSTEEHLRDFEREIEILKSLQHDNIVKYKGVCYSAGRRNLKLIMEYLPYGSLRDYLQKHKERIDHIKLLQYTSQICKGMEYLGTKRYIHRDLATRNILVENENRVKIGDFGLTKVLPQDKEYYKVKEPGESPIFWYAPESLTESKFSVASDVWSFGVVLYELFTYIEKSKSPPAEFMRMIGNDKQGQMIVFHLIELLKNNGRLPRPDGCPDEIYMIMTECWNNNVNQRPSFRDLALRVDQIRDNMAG

Turning to `COc1ccc(NC(=O)N2CCN(c3ccnc(Nc4ccc(N5CCOCC5)cc4)n3)CC2)cc1` [Example 1, N-(4-methoxyphenyl)-4-(2-{[4-(morpholin-4-yl)phenyl]amino}pyrimidin-4-yl)piperazine-1-carboxamide], the inhibition at 0.1 µM in experiment [1] was 21.7%; in experiment [2] it was 48.7%.

Take `O=C(Nc1ccc(OC(F)(F)F)cc1)N1CCN(c2ccnc(Nc3ccc(N4CCOCC4)cc3)n2)CC1` [Example 2, N-(4-trifluoromethoxyphenyl)-4-(2-{[4-(morpholin-4-yl)phenyl]amino}pyrimidin-4-yl)piperazine-1-carboxamide]: the inhibition at 0.1 µM came out at 30.5% in experiment [1] and 54.3% in experiment [2].

For `CCc1ccc(NC(=O)N2CCN(c3ccnc(Nc4ccc(N5CCOCC5)cc4)n3)CC2)cc1` [Example 3, N-(4-ethylphenyl)-4-(2-{[4-(morpholin-4-yl)phenyl]amino}pyrimidin-4-yl)piperazine-1-carboxamide], the inhibition at 0.1 µM turned out to be 27.4% in experiment [1] and 53.3% in experiment [2].

As for `O=C(Nc1ccccc1)N1CCN(c2ccnc(Nc3ccc(N4CCOCC4)cc3)n2)CC1` [Example 4, N-phenyl-4-(2-{[4-(morpholin-4-yl)phenyl]amino}pyrimidin-4-yl)piperazine-1-carboxamide], the inhibition at 0.1 µM in experiment [1] stood at 30.8%; in experiment [2] it was 53.7%.

For the compound `COC(=O)c1ccc(NC(=O)N2CCN(c3ccnc(Nc4ccc(N5CCOCC5)cc4)n3)CC2)cc1` [Example 5, N-(4-methoxyformylphenyl)-4-(2-{[4-(morpholin-4-yl)phenyl]amino}pyrimidin-4-yl)piperazine-1-carboxamide], the inhibition at 0.1 µM in experiment [1] was 62.8%; in experiment [2], 64.4%.

Turning to `O=C(Nc1ccc([N+](=O)[O-])cc1)N1CCN(c2ccnc(Nc3ccc(N4CCOCC4)cc3)n2)CC1` [Example 7, N-(4-nitrophenyl)-4-(2-{[4-(morpholin-4-yl)phenyl]amino}pyrimidin-4-yl)piperazine-1-carboxamide], the inhibition at 0.1 µM in experiment [1] turned out to be 84.4%; in experiment [2], 79.3%.

With `N#Cc1ccc(NC(=O)N2CCN(c3ccnc(Nc4ccc(N5CCOCC5)cc4)n3)CC2)cc1F` [Example 8, N-(4-cyano-3-fluorophenyl)-4-(2-{[4-(morpholin-4-yl)phenyl]amino}pyrimidin-4-yl)piperazine-1-carboxamide], the values for the inhibition at 0.1 µM in experiment [1] and in experiment [2] were 70.3% and 63.7%, respectively.

For `NC(=O)c1ccc(NC(=O)N2CCN(c3ccnc(Nc4ccc(N5CCOCC5)cc4)n3)CC2)cc1` [Example 10, N-(4-carbamoylphenyl)-4-(2-{[4-(morpholin-4-yl)phenyl]amino}pyrimidin-4-yl)piperazine-1-carboxamide], the inhibition at 0.1 µM in experiment [1] came out at 71.2%; in experiment [2] it was 76.3%.

Regarding `CNC(=O)c1ccc(NC(=O)N2CCN(c3ccnc(Nc4ccc(N5CCOCC5)cc4)n3)CC2)cc1` [Example 11, N-(4-methylcarbamoylphenyl)-4-(2-{[4-(morpholin-4-yl)phenyl]amino}pyrimidin-4-yl)piperazine-1-carboxamide], the inhibition at 0.1 µM in experiment [1] was determined as 35.8%; in experiment [2], 68.1%.

Regarding `NS(=O)(=O)c1ccc(NC(=O)N2CCN(c3ccnc(Nc4ccc(N5CCOCC5)cc4)n3)CC2)cc1` [Example 12, N-(4-aminosulfonylphenyl)-4-(2-{[4-(morpholin-4-yl)phenyl]amino}pyrimidin-4-yl)piperazine-1-carboxamide], the figures for the inhibition at 0.1 µM in experiment [1] and in experiment [2] were 69.7% and 76%, respectively.

`CC(=O)Nc1ccc(NC(=O)N2CCN(c3ccnc(Nc4ccc(N5CCOCC5)cc4)n3)CC2)cc1` [Example 13, N-(4-acetylaminophenyl)-4-(2-{[4-(morpholin-4-yl)phenyl]amino}pyrimidin-4-yl)piperazine-1-carboxamide]: the results for the inhibition at 0.1 µM in experiment [1] and in experiment [2] were 70.8% and 73%, respectively.

On to `CN1CCN(c2ccc(Nc3nccc(N4CCN(C(=O)Nc5ccc(C(N)=O)cc5)CC4)n3)cc2)CC1` [Example 15, N-(4-carbamoylphenyl)-4-(2-{[4-(4-methylpiperazin-1-yl)phenyl]amino}pyrimidin-4-yl)piperazine-1-carboxamide], for which the values for the inhibition at 0.1 µM in experiment [1] and in experiment [2] were 85% and 84%, respectively.

For the compound `CC(=O)c1ccc(NC(=O)N2CCN(c3ccnc(Nc4ccc(OCCN5CCCC5)cc4)n3)CC2)cc1` [Example 16, N-(4-acetylphenyl)-4-[2-({4-[2-(pyrrolidin-1-yl)ethoxy]phenyl}amino)pyrimidin-4-yl]piperazine-1-carboxamide], the values for the inhibition at 0.1 µM in experiment [1] and in experiment [2] were 69% and 45%, respectively.

`CC(=O)c1ccc(NC(=O)N2CCN(c3ccnc(Nc4ccc(N5CCC(C)CC5)cc4)n3)CC2)cc1` [Example 17, N-(4-acetylphenyl)-4-(2-{[4-(4-methylpiperidin-1-yl)phenyl]amino}pyrimidin-4-yl)piperazine-1-carboxamide]: the results for the inhibition at 0.1 µM in experiment [1] and in experiment [2] were 54% and 53%, respectively.

In the case of `CC(=O)c1ccc(NC(=O)N2CCN(c3ccnc(Nc4ccc(OCCN5CCOCC5)cc4)n3)CC2)cc1` [Example 18, N-(4-acetylphenyl)-4-[2-({4-[2-(morpholin-4-yl)ethoxy]phenyl}amino)pyrimidin-4-yl]piperazine-1-carboxamide], the inhibition at 0.1 µM in experiment [1] worked out at 70.6%; in experiment [2], 61.7%.

Take `CC(=O)c1ccc(NC(=O)N2CCN(c3ccnc(Nc4ccc(OCCCN5CCOCC5)cc4)n3)CC2)cc1` [Example 19, N-(4-acetylphenyl)-4-[2-({4-[3-(morpholin-4-yl)propoxy]phenyl}amino)pyrimidin-4-yl]piperazine-1-carboxamide]: the inhibition at 0.1 µM in experiment [1] was 70.9%; in experiment [2], 60.9%.

Consider `CC(=O)c1ccc(NC(=O)N2CCN(c3nc(Nc4ccc(N5CCOCC5)cc4)nc4ccsc34)CC2)cc1` [Example 24, N-(4-acetylphenyl)-4-(2-{[4-(morpholin-4-yl)phenyl]amino}thieno[3,2-d]pyrimidin-4-yl)piperazine-1-carboxamide], for which the inhibition at 0.1 µM came out at 68% in experiment [1] and 44% in experiment [2].

In the case of `CC(=O)c1ccc(NC(=O)N2CCN(c3nc(Nc4ccc(N5CCOCC5)cc4)ncc3N)CC2)cc1` [Example 27, N-(4-acetylphenyl)-4-(5-amino-2-{[4-(morpholin-4-yl)phenyl]amino}pyrimidin-4-yl)piperazine-1-carboxamide], the inhibition at 0.1 µM in experiment [1] stood at 67.9%; in experiment [2] it was 22.8%.

As to `CC(=O)c1ccc(NC(=O)N2CCC(Nc3nc(Nc4ccc(N5CCOCC5)cc4)ncc3C)C2)cc1` (stereo not shown) [Example 28, N-(4-acetylphenyl)-3-[(5-methyl-2-{[4-(morpholin-4-yl)phenyl]amino}pyrimidin-4-yl)amino]pyrrolidine-1-carboxamide], the results for the inhibition at 0.1 µM in experiment [1] and in experiment [2] were 57.3% and 69.3%, respectively.

On to `CC(=O)c1ccc(NC(=O)NC2CCN(c3nc(Nc4ccc(N5CCOCC5)cc4)ncc3C)C2)cc1` (stereo not shown) [Example 29, 1-(4-acetylphenyl)-3-[1-(5-methyl-2-{[4-(morpholin-4-yl)phenyl]amino}pyrimidin-4-yl)pyrrolidin-3-yl]urea], for which the inhibition at 0.1 µM came to 75.7% in experiment [1] and 57.4% in experiment [2].
